{
  "source": "patent US7135279B2",
  "about": "(priority 1992, dated 2006)",
  "key": {"[1]": {"conditions": "control of morning sickness during pregnancy; cited from earlier work"}, "[2]": {"tested_on": "D-[Aba^67.95 (CO-S)^51–52]2 HIV-1 PR", "assay": "Fluorogenic assay of inhibitors against the D-ligation analog", "assay_type": "biochemical", "conditions": "corresponding chiral substrate, 5×1C50 concentration of inhibitor", "protocol": "(§1) The D- and L-enzymes were separately assayed by the fluorogenic assay method using the corresponding chiral substrate, in the presence of 5×1C50 concentration of inhibitor. The fluorogenic assays were performed with 15 ul aliquots (corresponding to […] protein) of each enzyme enantiomer in 100 millimolar MES buffer pH 6.5 added to a solution of […] D- or L-fluorogenic substrate in the MES buffer. The substrate sequence was 2-aminobenzoyl-Thr-Ile-Nle-Phe(p-NO2)-Gln-Arg amide (SEQ ID NO 2): it was synthesized with either D- or L-amino acid derivatives to provide the appropriate enantiomeric forms. The inhibitor Evans Blue is a non-peptide, achiral mixed competitive-uncompetitive inhibitor of the HIV-1 PR enzyme."}, "[3]": {"molecular_target": "T1, L-[Aba^67.95 (CO-S)^51–52]2 HIV-1 PR (Human immunodeficiency virus type 1 group M subtype B, UniProt P03369, C557A/C585A)", "T1 construct": "to form the ligated 99-residue D- and L-[(NHCH2COSCH2 CO)^51-52]; HIV-1 PR products; made in house; host or cells: total chemical synthesis: solid-phase segments 1-51 and 53-99 joined by chemical ligation", "assay": "Fluorogenic assay of inhibitors against the L-ligation analog", "assay_type": "biochemical", "conditions": "corresponding chiral substrate, 5×1C50 concentration of inhibitor", "protocol": "as §1"}},
  "data": [
    {"compound": "O=C1CC[C@@H](N2C(=O)c3ccccc3C2=O)C(=O)N1", "note": "(single isomer, unassigned) [D-enantiomer of thalidomide]", "values": [
      {"measurement": "sedative effect", "setting": "[1]", "value": "safe and effective sedative"}
    ]},
    {"compound": "Ac-Thr-Ile-Nle-psi[CH2NH]-Nle-Gln-Arg.amide [D-MVT101]", "values": [
      {"measurement": "inhibition of D-[Aba^67.95 (CO-S)^51–52]2 HIV-1 PR", "setting": "[2]", "value": "inhibits"},
      {"measurement": "inhibition of L-[Aba^67.95 (CO-S)^51–52]2 HIV-1 PR", "setting": "[3]", "value": "no effect"}
    ]},
    {"compound": "Ac-Thr-Ile-Nle-psi[CH2NH]-Nle-Gln-Arg.amide [L-MVT101]", "values": [
      {"measurement": "inhibition of D-[Aba^67.95 (CO-S)^51–52]2 HIV-1 PR", "setting": "[2]", "value": "no effect"},
      {"measurement": "inhibition of L-[Aba^67.95 (CO-S)^51–52]2 HIV-1 PR", "setting": "[3]", "value": "inhibits"}
    ]}
  ]
}
